#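 Compound exposure: 48 hours, 5 concentrations, 96-well plates. GI50 is the concentration that inhibits growth by half. TGI: total growth inhibition.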
# How the values were obtained:
# Test in all cases: NCI-60 cell line screen, 48 h
# [1] = tested on: 786-0 renal
# [2] = tested on: A498 renal
# [3] = tested on: A549 NSCLC
# [4] = tested on: ACHN renal
# [5] = tested on: BT-549 breast
# [6] = tested on: CAKI-1 renal
# [7] = tested on: CCRF-CEM leukemia
# [8] = tested on: COLO 205 colon
# [9] = tested on: DU-145 prostate
# [10] = tested on: EKVX NSCLC
# [11] = tested on: HCC-2998 colon
# [12] = tested on: HCT-116 colon
# [13] = tested on: HCT-15 colon
# [14] = tested on: HL-60(TB) leukemia
# [15] = tested on: HOP-62 NSCLC
# [16] = tested on: HOP-92 NSCLC
# [17] = tested on: HS 578T breast
# [18] = tested on: HT29 colon
# [19] = tested on: IGROV1 ovarian
# [20] = tested on: K-562 leukemia
# [21] = tested on: KM12 colon
# [22] = tested on: LOX IMVI melanoma
# [23] = tested on: M14 melanoma
# [24] = tested on: MALME-3M melanoma
# [25] = tested on: MCF7 breast
# [26] = tested on: MDA-MB-231 breast
# [27] = tested on: MDA-MB-435
# [28] = tested on: MOLT-4 leukemia
# [29] = tested on: NCI-H226 lung
# [30] = tested on: NCI-H460 lung
# [31] = tested on: NCI-H522 lung
# [32] = tested on: NCI/ADR-RES ovarian
# [33] = tested on: OVCAR-3 ovarian
# [34] = tested on: OVCAR-4 ovarian
# [35] = tested on: OVCAR-5 ovarian
# [36] = tested on: OVCAR-8 ovarian
# [37] = tested on: PC-3 prostate
# [38] = tested on: RPMI-8226 leukemia
# [39] = tested on: RXF 393 renal
# [40] = tested on: SF-268 CNS
# [41] = tested on: SF-295 CNS
# [42] = tested on: SF-539 CNS
# [43] = tested on: SK-MEL-2 melanoma
# [44] = tested on: SK-MEL-28 melanoma
# [45] = tested on: SK-MEL-5 melanoma
# [46] = tested on: SK-OV-3 ovarian
# [47] = tested on: SN12C renal
# [48] = tested on: SNB-19 CNS
# [49] = tested on: SNB-75 CNS
# [50] = tested on: SR leukemia
# [51] = tested on: SW-620 colon
# [52] = tested on: T-47D breast
# [53] = tested on: TK-10 renal
# [54] = tested on: U251 CNS
# [55] = tested on: UACC-257 melanoma
# [56] = tested on: UACC-62 melanoma
# [57] = tested on: UO-31 renal
compound,measurement,setting,value
CCc1cccc2c3c(sc12)C(c1ccc(OC)cc1)C(C#N)=C(/N=C/c1ccc(Cl)cc1)O3 (centres undefined),GI50,[1],2.2 µM
same,TGI,[1],16.1 µM
same,GI50,[2],20.1 µM
same,TGI,[2],> 100 µM
same,GI50,[3],5.39 µM
same,TGI,[3],> 100 µM
same,GI50,[4],3.16 µM
same,TGI,[4],19.4 µM
same,GI50,[5],4.23 µM
same,TGI,[5],39.7 µM
same,GI50,[6],0.595 µM
same,TGI,[6],29.1 µM
same,GI50,[7],0.792 µM
same,TGI,[7],7.96 µM
same,GI50,[8],2.2 µM
same,TGI,[8],5 µM
same,GI50,[9],3.3 µM
same,TGI,[9],> 100 µM
same,GI50,[10],5.94 µM
same,TGI,[10],> 100 µM
same,GI50,[11],1.79 µM
same,TGI,[11],4.57 µM
same,GI50,[12],1.07 µM
same,TGI,[12],10.3 µM
same,GI50,[13],0.6 µM
same,TGI,[13],11.2 µM
same,GI50,[14],0.563 µM
same,TGI,[14],5.98 µM
same,GI50,[15],2.5 µM
same,TGI,[15],20.2 µM
same,GI50,[16],5.48 µM
same,TGI,[16],53.3 µM
same,GI50,[17],1.9 µM
same,TGI,[17],7.8 µM
same,GI50,[18],2.31 µM
same,TGI,[18],6.26 µM
same,GI50,[19],1.67 µM
same,TGI,[19],> 100 µM
same,GI50,[20],0.363 µM
same,TGI,[20],> 100 µM
same,GI50,[21],2.06 µM
same,TGI,[21],33.2 µM
same,GI50,[22],1.87 µM
same,TGI,[22],15 µM
same,GI50,[23],1.24 µM
same,TGI,[23],5.17 µM
same,GI50,[24],0.921 µM
same,TGI,[24],44.3 µM
same,GI50,[25],0.859 µM
same,TGI,[25],14.1 µM
same,GI50,[26],2.95 µM
same,TGI,[26],13.6 µM
same,GI50,[27],0.227 µM
same,TGI,[27],0.578 µM
same,GI50,[28],2.25 µM
same,TGI,[28],17.1 µM
same,GI50,[29],2.59 µM
same,TGI,[29],13.1 µM
same,GI50,[30],1.02 µM
same,TGI,[30],10.4 µM
same,GI50,[31],0.78 µM
same,TGI,[31],2.7 µM
same,GI50,[32],0.55 µM
same,TGI,[32],4.7 µM
same,GI50,[33],0.554 µM
same,TGI,[33],4.49 µM
same,GI50,[34],6.65 µM
same,TGI,[34],> 100 µM
same,GI50,[35],3.97 µM
same,TGI,[35],27.8 µM
same,GI50,[36],2.15 µM
same,TGI,[36],7.09 µM
same,GI50,[37],1.83 µM
same,TGI,[37],22.1 µM
same,GI50,[38],2.28 µM
same,TGI,[38],7.27 µM
same,GI50,[39],0.72 µM
same,TGI,[39],2.56 µM
same,GI50,[40],5.6 µM
same,TGI,[40],44.4 µM
same,GI50,[41],1.26 µM
same,TGI,[41],15.5 µM
same,GI50,[42],1.59 µM
same,TGI,[42],4.29 µM
same,GI50,[43],0.987 µM
same,TGI,[43],5.95 µM
same,GI50,[44],4.85 µM
same,TGI,[44],28 µM
same,GI50,[45],2.81 µM
same,TGI,[45],11.8 µM
same,GI50,[46],2.42 µM
same,TGI,[46],45.4 µM
same,GI50,[47],3.76 µM
same,TGI,[47],19.1 µM
same,GI50,[48],3.56 µM
same,TGI,[48],> 100 µM
same,GI50,[49],1.35 µM
same,TGI,[49],15.3 µM
same,GI50,[50],0.361 µM
same,TGI,[50],5.97 µM
same,GI50,[51],1.14 µM
same,TGI,[51],15.7 µM
same,GI50,[52],2.43 µM
same,TGI,[52],> 100 µM
same,GI50,[53],20.5 µM
same,TGI,[53],> 100 µM
same,GI50,[54],3 µM
same,TGI,[54],13.8 µM
same,GI50,[55],16.1 µM
same,TGI,[55],> 100 µM
same,GI50,[56],0.54 µM
same,TGI,[56],30.5 µM
same,GI50,[57],1.85 µM
same,TGI,[57],49.6 µM
